Measured values as given in ChEMBL document CHEMBL1201862, “PubChem BioAssay data set” (2004).
The source made the active and inactive calls.

What was measured:
[1] = target: T1, RNA-binding protein pos-1 (Caenorhabditis elegans, UniProt G5EF15); assay: disruptors of C. elegans POS-1 RNA interaction – biochemical, fluorescence polarization, dose response (AID 1964);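 further: purified POS-1 fused to maltose binding protein made in E. coli; potency of compounds blocking POS-1 binding to fluorescent RNA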
T1 sequence (G5EF15 whole entry): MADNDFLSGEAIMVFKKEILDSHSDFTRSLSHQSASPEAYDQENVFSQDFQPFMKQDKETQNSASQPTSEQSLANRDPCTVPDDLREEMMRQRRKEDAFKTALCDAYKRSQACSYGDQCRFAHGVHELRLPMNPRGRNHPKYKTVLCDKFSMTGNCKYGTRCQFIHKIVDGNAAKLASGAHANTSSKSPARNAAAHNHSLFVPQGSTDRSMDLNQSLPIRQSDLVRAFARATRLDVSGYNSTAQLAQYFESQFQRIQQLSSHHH

[2] = target: Peroxisome proliferator-activated receptor gamma/Nuclear receptor coactivator 3 (Homo sapiens, UniProt P37231); assay type: functional;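 further: agonist potency for raising coactivator recruitment to the receptor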
Peroxisome proliferator-activated receptor gamma/Nuclear receptor coactivator 3, sequence (P37231 whole entry): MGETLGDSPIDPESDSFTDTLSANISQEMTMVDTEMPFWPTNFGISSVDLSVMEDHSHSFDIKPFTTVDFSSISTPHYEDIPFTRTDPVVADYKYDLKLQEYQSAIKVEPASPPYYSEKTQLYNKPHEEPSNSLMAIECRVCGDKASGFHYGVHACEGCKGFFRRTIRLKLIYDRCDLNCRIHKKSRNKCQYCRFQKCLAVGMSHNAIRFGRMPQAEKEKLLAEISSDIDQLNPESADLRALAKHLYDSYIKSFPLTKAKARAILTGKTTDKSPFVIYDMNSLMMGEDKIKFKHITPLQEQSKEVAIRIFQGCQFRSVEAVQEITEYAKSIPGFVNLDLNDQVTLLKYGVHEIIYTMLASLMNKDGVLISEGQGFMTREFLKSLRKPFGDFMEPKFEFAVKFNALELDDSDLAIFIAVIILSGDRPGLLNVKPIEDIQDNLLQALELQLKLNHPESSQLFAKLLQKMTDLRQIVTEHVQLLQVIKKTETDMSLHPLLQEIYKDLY
Peroxisome proliferator-activated receptor gamma/Nuclear receptor coactivator 3, sequence (Q9Y6Q9 whole entry, further chain): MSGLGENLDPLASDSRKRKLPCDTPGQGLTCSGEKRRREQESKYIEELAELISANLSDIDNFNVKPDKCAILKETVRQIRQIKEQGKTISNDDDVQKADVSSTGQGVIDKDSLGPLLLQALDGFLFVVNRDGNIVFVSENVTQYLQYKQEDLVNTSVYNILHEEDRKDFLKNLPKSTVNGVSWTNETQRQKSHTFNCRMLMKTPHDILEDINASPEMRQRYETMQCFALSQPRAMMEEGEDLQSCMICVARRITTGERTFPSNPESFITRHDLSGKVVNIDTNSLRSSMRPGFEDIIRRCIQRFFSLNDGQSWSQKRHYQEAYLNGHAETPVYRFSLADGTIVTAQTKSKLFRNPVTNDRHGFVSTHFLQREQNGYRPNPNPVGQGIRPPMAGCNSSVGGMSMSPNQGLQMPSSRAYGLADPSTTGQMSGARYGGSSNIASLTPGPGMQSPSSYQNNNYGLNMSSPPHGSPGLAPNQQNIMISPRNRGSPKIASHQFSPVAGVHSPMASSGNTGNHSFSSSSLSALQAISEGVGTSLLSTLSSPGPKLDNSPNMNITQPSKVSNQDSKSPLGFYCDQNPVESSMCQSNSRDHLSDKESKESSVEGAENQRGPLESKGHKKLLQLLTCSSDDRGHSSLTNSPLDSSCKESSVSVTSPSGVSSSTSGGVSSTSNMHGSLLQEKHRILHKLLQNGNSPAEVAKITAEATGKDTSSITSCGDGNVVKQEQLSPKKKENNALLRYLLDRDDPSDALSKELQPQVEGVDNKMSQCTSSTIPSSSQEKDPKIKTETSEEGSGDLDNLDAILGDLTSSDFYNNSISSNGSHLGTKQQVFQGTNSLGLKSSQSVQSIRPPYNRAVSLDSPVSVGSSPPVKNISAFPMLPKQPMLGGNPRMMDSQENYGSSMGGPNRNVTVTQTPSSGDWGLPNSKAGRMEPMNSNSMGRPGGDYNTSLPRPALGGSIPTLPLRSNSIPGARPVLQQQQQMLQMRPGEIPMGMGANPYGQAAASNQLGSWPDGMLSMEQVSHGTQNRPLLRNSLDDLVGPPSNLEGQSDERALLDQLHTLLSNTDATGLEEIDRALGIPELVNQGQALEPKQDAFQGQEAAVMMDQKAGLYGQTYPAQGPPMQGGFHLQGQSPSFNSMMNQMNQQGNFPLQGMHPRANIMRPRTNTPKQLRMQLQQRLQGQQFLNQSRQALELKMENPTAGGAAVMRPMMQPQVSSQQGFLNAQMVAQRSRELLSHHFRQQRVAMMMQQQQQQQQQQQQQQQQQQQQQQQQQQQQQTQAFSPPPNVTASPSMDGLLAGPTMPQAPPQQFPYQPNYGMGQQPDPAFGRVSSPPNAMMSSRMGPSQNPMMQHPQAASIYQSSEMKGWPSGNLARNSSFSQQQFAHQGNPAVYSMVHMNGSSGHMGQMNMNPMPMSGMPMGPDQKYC

[3] = target: Peroxisome proliferator-activated receptor gamma/Nuclear receptor coactivator 2 (Homo sapiens, UniProt P37231); assay type: functional;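 further: agonist potency for raising coactivator recruitment to the receptor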
H4 = assay: Luminescence Cell-Based Dose Response HTS to Identify Activators of 5'UTR Stem-Loop Driven Prion Protein mRNA Translation in H4 Neuroglioblastoma Cells. [Related pubchem assays: 1829 (Project Summary), 1814 (Primary HTS)]; assay type: functional; details: Homo sapiens
[4] = target: Peroxisome proliferator-activated receptor gamma/Nuclear receptor coactivator 1 (Homo sapiens, UniProt P37231); assay type: functional;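 further: agonist potency as compounds enhance coactivator SRC-1 recruitment to PPARgamma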
Peroxisome proliferator-activated receptor gamma/Nuclear receptor coactivator 1, sequence (P37231 whole entry): as the sequence (P37231 whole entry) above
Peroxisome proliferator-activated receptor gamma/Nuclear receptor coactivator 1, sequence (Q15788 whole entry, further chain): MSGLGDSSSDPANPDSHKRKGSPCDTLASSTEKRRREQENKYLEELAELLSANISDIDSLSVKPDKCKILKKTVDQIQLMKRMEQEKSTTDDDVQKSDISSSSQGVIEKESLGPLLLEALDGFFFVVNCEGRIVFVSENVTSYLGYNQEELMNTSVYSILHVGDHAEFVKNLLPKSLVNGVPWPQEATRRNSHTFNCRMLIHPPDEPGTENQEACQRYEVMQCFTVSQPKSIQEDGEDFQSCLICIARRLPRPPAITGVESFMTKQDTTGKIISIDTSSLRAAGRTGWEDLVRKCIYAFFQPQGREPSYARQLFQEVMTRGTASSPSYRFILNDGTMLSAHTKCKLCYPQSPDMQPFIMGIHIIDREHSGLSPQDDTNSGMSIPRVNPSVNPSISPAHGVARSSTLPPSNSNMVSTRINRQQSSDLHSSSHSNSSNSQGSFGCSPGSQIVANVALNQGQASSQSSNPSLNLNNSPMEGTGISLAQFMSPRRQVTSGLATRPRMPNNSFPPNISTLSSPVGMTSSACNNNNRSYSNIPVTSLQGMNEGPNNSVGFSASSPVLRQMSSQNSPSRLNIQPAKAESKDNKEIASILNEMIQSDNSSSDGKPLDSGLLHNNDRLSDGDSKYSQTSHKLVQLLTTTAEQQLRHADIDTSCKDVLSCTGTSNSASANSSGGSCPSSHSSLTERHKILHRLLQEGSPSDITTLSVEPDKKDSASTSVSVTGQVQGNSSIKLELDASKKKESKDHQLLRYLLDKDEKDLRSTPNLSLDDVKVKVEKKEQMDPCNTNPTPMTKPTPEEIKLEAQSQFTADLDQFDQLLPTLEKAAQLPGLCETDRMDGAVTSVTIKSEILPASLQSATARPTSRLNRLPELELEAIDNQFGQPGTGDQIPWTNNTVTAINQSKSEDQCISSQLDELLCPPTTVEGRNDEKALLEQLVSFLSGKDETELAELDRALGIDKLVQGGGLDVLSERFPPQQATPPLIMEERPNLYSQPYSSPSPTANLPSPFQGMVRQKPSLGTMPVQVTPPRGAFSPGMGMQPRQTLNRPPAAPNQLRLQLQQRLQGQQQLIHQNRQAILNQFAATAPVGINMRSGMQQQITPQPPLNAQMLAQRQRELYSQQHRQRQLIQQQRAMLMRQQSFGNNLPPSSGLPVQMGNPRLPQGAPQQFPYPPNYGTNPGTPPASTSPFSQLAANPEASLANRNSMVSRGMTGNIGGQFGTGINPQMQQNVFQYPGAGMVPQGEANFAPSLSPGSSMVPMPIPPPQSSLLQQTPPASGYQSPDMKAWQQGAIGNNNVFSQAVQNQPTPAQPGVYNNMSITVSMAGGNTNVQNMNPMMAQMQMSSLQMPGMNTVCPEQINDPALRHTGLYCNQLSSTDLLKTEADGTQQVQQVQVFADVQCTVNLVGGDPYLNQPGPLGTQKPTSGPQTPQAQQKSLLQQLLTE

[5] = target: T2, Zinc finger protein mex-5 (Caenorhabditis elegans, UniProt Q9XUB2); assay: potency of MEX-5 RNA-binding blockers – biochemical, C. elegans, fluorescence polarization, dose response (AID 1960)
T2 sequence (Q9XUB2 whole entry): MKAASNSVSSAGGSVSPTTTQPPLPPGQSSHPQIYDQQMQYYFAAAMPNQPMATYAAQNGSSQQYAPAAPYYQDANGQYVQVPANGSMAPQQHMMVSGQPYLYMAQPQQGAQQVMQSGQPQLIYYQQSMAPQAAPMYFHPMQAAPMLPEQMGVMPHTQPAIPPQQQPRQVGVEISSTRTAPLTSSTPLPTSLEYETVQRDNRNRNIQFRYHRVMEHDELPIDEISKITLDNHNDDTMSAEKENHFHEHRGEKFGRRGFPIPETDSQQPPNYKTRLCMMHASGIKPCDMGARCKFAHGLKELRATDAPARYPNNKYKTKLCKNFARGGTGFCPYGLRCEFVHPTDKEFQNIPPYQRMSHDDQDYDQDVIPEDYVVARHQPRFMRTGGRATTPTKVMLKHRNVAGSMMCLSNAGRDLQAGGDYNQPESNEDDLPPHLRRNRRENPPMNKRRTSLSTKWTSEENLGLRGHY

Protein Tat = target: T3, Protein Tat (Human immunodeficiency virus type 1 group M subtype B (isolate HXB2)(HIV-1), UniProt P04608); assay type: functional;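 further: tat binding to TAR RNA read out by fluorescence polarization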
T3 sequence (P04608 whole entry): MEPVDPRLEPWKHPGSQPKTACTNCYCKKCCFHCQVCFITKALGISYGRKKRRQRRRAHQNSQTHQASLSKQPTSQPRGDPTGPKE

Troponin, cardiac muscle = Troponin, cardiac muscle (Homo sapiens, UniProt P19429+P45379+P63316); assay: Fluorescence-based biochemical high throughput dose response assay for activators of the calcium sensitivity of cardiac Regulated Thin Filaments (RTF). [Related pubchem assays (depositor defined):AID493008, AID493018, AID504382, AID504383]; assay type: protein-complex assay
[6] = DRD fibroblast viability loss – cell-based, non-viral oncogenic, luminescence, dose response (AID 1934); assay type: functional; details: Homo sapiens
[7] = toxicity toward HepG2 liver cells – cell-based, plate reader, cherry-pick, antagonist series, cytotoxicity control, dose response (AID 743416); assay type: functional
BJ [8] = assay: BJ-TERT fibroblast viability loss – cell-based, RAS-independent, luminescence, dose response (AID 1933); assay type: functional; details: Homo sapiens
BJ [9] = assay: cells; assay type: functional, cell-based; details: Homo sapiens
[10] = viability loss in HEK293 cells – cell-based, plate reader, cherry-picked samples, cytotoxicity control, dose response (AID 743446); assay type: functional
[11] = blockade of melanocortin 4 receptor signaling – cell-based, plate reader, cherry pick, counter-screen for LGR2 antagonist project, dose response (AID 743444); assay type: functional;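 further: transfected HEK 293 cells stimulated with alpha-MSH peptide; potency of inhibitors of the alpha-MSH evoked signal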
[12] = A549 cell cytotoxicity, dose response, cytotoxicity control, plate reader, cherry-pick, antagonist series (AID 743412); assay type: functional, cell-based
BJ [13] = assay: BJ-TERT-LT-ST fibroblast viability loss – cell-based, RAS-independent, luminescence, dose response (AID 1935); assay type: functional; details: Homo sapiens;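 further: BJ fibroblasts immortalized with TERT plus LT and ST oncogenes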
[14] = blockers of bursicon-stimulated LGR2 cAMP reporter – cell-based, HEK293, CRE-luciferase reporter, cherry pick, set 2, dose response (AID 743343); assay type: functional;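 further: transfected cells were stimulated with diluted bursicon conditioned medium after compound addition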
Cytochrome P450 3A4 = Cytochrome P450 3A4 (Homo sapiens, UniProt P08684); details: Potency;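 further: confirmatory qHTS run detecting inhibitors and substrates of CYP3A4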
Cytochrome P450 3A4, sequence (P08684 whole entry): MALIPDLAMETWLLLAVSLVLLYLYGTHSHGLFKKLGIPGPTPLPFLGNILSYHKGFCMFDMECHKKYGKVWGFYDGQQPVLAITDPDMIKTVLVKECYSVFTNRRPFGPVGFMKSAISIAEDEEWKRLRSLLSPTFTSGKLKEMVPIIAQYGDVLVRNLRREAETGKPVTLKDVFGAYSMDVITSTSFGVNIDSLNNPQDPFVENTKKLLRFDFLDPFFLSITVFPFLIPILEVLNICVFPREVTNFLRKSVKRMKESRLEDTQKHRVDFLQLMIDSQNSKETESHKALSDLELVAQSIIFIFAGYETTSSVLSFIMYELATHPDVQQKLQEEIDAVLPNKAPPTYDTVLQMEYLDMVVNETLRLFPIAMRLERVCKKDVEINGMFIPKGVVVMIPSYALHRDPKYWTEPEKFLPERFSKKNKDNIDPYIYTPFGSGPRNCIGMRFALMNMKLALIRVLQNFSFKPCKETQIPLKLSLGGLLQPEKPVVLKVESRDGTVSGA

[15] = target: T4, E3 ubiquitin-protein ligase XIAP (Homo sapiens, UniProt P98170); assay: Counter Screen using XIAP-Bir3 for Chemical Antagonists of Bir1/2 domains of IAP-family anti-apoptotic proteins. [Related pubchem assays (depositor defined):AID1018, AID1449, AID1514, AID1638, AID1749, AID1750, AID488957, AID488963]
T4 sequence (P98170 whole entry): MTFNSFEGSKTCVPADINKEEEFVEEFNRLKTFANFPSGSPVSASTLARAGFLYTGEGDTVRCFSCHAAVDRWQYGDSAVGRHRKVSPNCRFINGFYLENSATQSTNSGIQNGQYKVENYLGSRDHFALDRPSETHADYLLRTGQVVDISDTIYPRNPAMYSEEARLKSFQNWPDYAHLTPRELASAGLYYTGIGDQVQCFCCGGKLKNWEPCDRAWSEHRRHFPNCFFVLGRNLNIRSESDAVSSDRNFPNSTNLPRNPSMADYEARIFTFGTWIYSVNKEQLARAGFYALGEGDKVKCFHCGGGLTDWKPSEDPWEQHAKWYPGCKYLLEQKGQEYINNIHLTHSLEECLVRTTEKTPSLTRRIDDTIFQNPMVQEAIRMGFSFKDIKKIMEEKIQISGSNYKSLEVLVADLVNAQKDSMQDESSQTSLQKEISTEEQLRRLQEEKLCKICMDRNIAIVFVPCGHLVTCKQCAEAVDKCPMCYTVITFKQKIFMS

[16] = target: T4, E3 ubiquitin-protein ligase XIAP; assay: small molecules displacing peptide from XIAP – biochemical, IAP family, fluorescence polarization (AID 1018); assay type: functional
[17] = viability loss in HepG2 hepatoma cells – cell-based, ATP luminescence, cherry-pick, activator set 2, cytotoxicity control, dose response (AID 1053143); assay type: functional
Bcl-2-related protein A1 [18] = target: T5, Bcl-2-related protein A1 (Mus musculus, UniProt Q07440); assay: small-molecule antagonists of Bfl-1/BH3 interaction – biochemical, TR-FRET, mouse Bfl-1, confirmation (AID 621);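 further: TR-FRET binding of GST-Bfl-1 to FITC-labelled Bid peptide via terbium antibody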
T5 sequence (Q07440 whole entry): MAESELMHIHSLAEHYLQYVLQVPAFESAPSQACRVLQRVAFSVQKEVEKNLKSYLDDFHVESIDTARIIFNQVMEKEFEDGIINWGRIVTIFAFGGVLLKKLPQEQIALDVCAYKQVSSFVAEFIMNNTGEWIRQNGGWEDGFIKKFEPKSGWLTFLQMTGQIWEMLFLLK

Bcl-2-related protein A1 [19] = target: T5, Bcl-2-related protein A1; assay: Bfl-1 binding inhibitors, SAR follow-up, biochemical, fluorescence polarization (AID 1070)
[20] = target: Glyceraldehyde-3-phosphate dehydrogenase (Homo sapiens, UniProt P04406)
Estrogen receptor beta = Estrogen receptor beta (Homo sapiens, UniProt Q92731); assay: blockers of SRC-3 recruitment to ERβ – biochemical, ELISA, streptavidin-HRP readout, orthogonal assay, confirmation (AID 1060)

O=C(Cc1nc2ccccc2nc1O)c1ccccc1
EC50 [1]: 42.5 µM (inconclusive)
EC50 [2]: > 79.4 µM (not active)
EC50 [3]: > 79.4 µM (not active)
EC50 (H4): 0.419 µM (active)
EC50 [4]: > 79.4 µM (not active)
EC50 [5]: > 300 µM (inconclusive)

O=C(Nc1cccc(NS(=O)(=O)c2ccc(S(=O)(=O)NC3CC3)cc2)c1)c1ccccn1
EC50 [2]: > 79.4 µM (not active)
EC50 [3]: > 79.4 µM (not active)
EC50 [4]: > 79.4 µM (not active)

COc1cc2c3c(c1OC)C1(C=CC(=O)C=C1)CC3N(C(=O)CCC(=O)O)CC2 (stereo not drawn)
IC50 (Protein Tat): > 100 µM (active)

CN(Cc1ccccc1)C(=O)c1[nH]cnc1C(=O)NCc1ccccc1
EC50 (Troponin, cardiac muscle): > 71.6 µM (inactive)

COc1ccc(/N=C2/S/C(=C\c3ccc(C)o3)C(=O)N2CC(C)C)cc1
IC50 (Protein Tat): > 100 µM (active)

CN(C)C(=O)Oc1ccc(OCc2nc3ccccc3[nH]2)cc1
EC50 [6]: 8.55 µM (inconclusive)
AC50 [7]: 13.8 µM (active)
EC50 (BJ [8]): 8.38 µM (inconclusive)
EC50 (BJ [9]): 11.2 µM (inconclusive)
AC50 [10]: 10.2 µM (active)
AC50 [11]: 6.14 µM (active)
AC50 [12]: 11.8 µM (active)
EC50 (BJ [13]): 22.3 µM (active)
AC50 [14]: 6.62 µM (active)

S=C(NC1CCCCC1)NC1CCCCC1
AC50 (Cytochrome P450 3A4): 25.1 µM (inconclusive)

Cc1ccc(N(CC(=O)N/N=C/c2cccc(Br)c2)S(C)(=O)=O)cc1
IC50 [15]: > 100 µM (inactive)
IC50 [16]: > 100 µM (not active)

CCOC(=O)c1s/c(=N\C(=O)c2ccc(OC)c(OC)c2)n(C)c1C
EC50 [2]: 11.4 µM (not active)
EC50 [3]: 12.2 µM (not active)
EC50 [4]: 8.1 µM (active)

O=C(CSc1nc2cc(Br)c[nH]c-2n1)c1cccc([N+](=O)[O-])c1
EC50 (Troponin, cardiac muscle): > 71.5 µM (inactive)

Cc1csc(NC(=O)c2sccc2C)n1
AC50 [17]: 26 µM (active)

O=C1C(Cl)=C(N2CCN(c3ccc(Cl)cc3)CC2)C(=O)N1c1ccc(Cl)c(Cl)c1
IC50 (Bcl-2-related protein A1 [18]): > 100 µM (not active)
IC50 (Bcl-2-related protein A1 [19]): > 100 µM (not active)
IC50 [20]: > 100 µM (not active)

COC(=O)c1ccc(NC(=O)CSc2nc(C)cc(=O)[nH]2)cc1
IC50 (Estrogen receptor beta): > 50 µM (not active)
